Results on five compounds are retold here after the supplement of paper PMC8967900.

Holding throughout (assay): selective drug sensitivity score (sDSS, relative to normal bone marrow) (sDSS (score)); higher = more potent and effective on the cell line relative to normal bone marrow cells
What all share (settings): 72 h

The test system of experiment [1] is KASUMI-10.
The test system of experiment [2] is NALM-16.
The test system of experiment [3] is KASUMI-2.
The subject of experiment [4] is RPMI-8402.
The test system of experiment [5] is MHH-CALL-3.
The test system of experiment [6] is NALL-1.
In experiment [7] the test system is JURKAT.
Experiment [8] relates to COG-LL-394h.
Experiment [9] relates to 697.
Experiment [10] concerns CCRF-HSB2.
For experiment [11], the system named is PEER.
Experiment [12] relates to SEM cells.
Experiment [13] relates to KASUMI-9.
The test system of experiment [14] is SUP-B15.
Experiment [15] relates to COG-LL-402h.
The subject of experiment [16] is 380.
Experiment [17] has as its system LC4-1.
The test system of experiment [18] is ALL-PO.
The test system of experiment [19] is P12-ICHIKAWA
For experiment [20], the system named is DND-41.
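Further: ALL cell lines in 384-well plates, five doses spanning 10,000-fold, each plate scaled between vehicle and 100 µmol/L benzalkonium chloride controls, sDSS an adapted area-under-curve metric.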

Regarding `CC[C@@H]1C(=O)OC[C@@H]1Cc1cncn1C` [Pilocarpine] (top concentration 40000 nM), the “selective drug sensitivity score” value was -1.56 in experiment [1]; -1.56 in [2]; -1.56 in [3]; -1.56 in experiment [4]; -1.56 in [5]; 7.44 in experiment [6]. Besides, the “selective drug sensitivity score” value in experiment [7], in experiment [8], in experiment [9], in experiment [10], in [11] and in experiment [12] was -1.56 throughout. Besides, the “selective drug sensitivity score” value in experiment [13], in experiment [14], in [15], in [16], in [17] and in [18] was -1.56 throughout. Also, the “selective drug sensitivity score” value was -1.56 in [19] and 4.34 in [20].

As to `COc1cc([C@@H]2c3cc4c(cc3[C@@H](O[C@@H]3O[C@@H]5CO[C@@H](C)O[C@H]5[C@H](O)[C@H]3O)[C@H]3COC(=O)[C@H]23)OCO4)cc(OC)c1O` [Etoposide] (top concentration 10000 nM), the “selective drug sensitivity score” value in experiment [1] was 13; in experiment [2] it was 2.64; in experiment [3], 20.9; in experiment [4] it was 17.4; in experiment [5] it was 19.7; in experiment [6] it was 14.9. Besides, the “selective drug sensitivity score” value in [7] came to 14.2; in experiment [8] it was 7.04; in [9], 20.6; in [10], 26; in [11], 6.84; in experiment [12], 15.5. Further, the “selective drug sensitivity score” value in [13] was 16.3; in experiment [14] it was 26.8; in [15], 21.4; in experiment [16] it was 21.3; in experiment [17], 14.8; in [18], 5.44. Further, the figures for the “selective drug sensitivity score” value in [19] and in experiment [20] were 18.9 and 11.3, respectively.

Consider `CC(C)N(CCCNC(=O)Nc1ccc(C(C)(C)C)cc1)C[C@H]1O[C@@H](n2cc(Br)c3c(N)ncnc32)[C@H](O)[C@@H]1O` [SGC0946] (top concentration 10000 nM), for which the “selective drug sensitivity score” value in [1] is -0.12; in experiment [2], -0.62; in [3] it was -1.12; in [4], 1.78; in experiment [5], -1.12; in experiment [6], 5.58. Further, the “selective drug sensitivity score” value in experiment [7] is -0.42; in experiment [8], -0.82; in experiment [9] it was -0.02; in experiment [10], 0.68; in experiment [11], 0.88; in [12], -0.72. For the same compound, the “selective drug sensitivity score” value in experiment [13] was 0.28; in [14] it was -0.62; in experiment [15], -0.62; in [16], -1.12; in experiment [17], -1.02; in experiment [18], 1.58. Also, the entries for the “selective drug sensitivity score” value in experiment [19] and in experiment [20] were 0.08 and -1.02, respectively.

In the case of `CCCCNc1ncc(C(=O)NCc2ccc(-n3ccnc3)cc2)c(NC2CCC(O)CC2)n1` (stereo not given) [UNC2881] (top concentration 2500 nM), the “selective drug sensitivity score” value is 4.9 in experiment [1]; 0 in experiment [2]; 0 in experiment [3]; 0 in experiment [4]; 0 in [5]; 0.6 in experiment [6]. In addition, the “selective drug sensitivity score” value in [7] turned out to be 0; in experiment [8], 0; in [9] it was 1; in experiment [10], 0; in experiment [11], 1.5; in experiment [12], 6.3. The “selective drug sensitivity score” value amounted to 0 in experiment [13]; 3.9 in experiment [14]; 0 in experiment [15]; 0 in experiment [16]; 0 in experiment [17]; 7.2 in experiment [18]. In addition, the “selective drug sensitivity score” value in experiment [19] and in [20] was 0 in each case.

For `CC(=O)O[C@@]12CO[C@@H]1C[C@H](O)[C@@]1(C)C(=O)[C@H](O)C3=C(C)[C@@H](OC(=O)[C@H](O)[C@@H](NC(=O)OC(C)(C)C)c4ccccc4)C[C@@](O)([C@@H](OC(=O)c4ccccc4)[C@H]21)C3(C)C` [Docetaxel] (top concentration 1000 nM), the “selective drug sensitivity score” value in experiment [1] is 14.6; in experiment [2], 12.3; in experiment [3], 16.4; in experiment [4], 13.2; in experiment [5] it was 7.3; in experiment [6] it was 15.9. The “selective drug sensitivity score” value in [7] was determined as 17.1; in [8], 8.5; in experiment [9] it was 23.4; in [10] it was 19.3; in experiment [11], 22.3; in [12] it was 19.5. Further, the “selective drug sensitivity score” value was determined as 21 in [13]; 21.7 in experiment [14]; 15 in experiment [15]; 22.4 in experiment [16]; 22.9 in experiment [17]; 15.5 in experiment [18]. Further, the figures for the “selective drug sensitivity score” value in experiment [19] and in experiment [20] were 19.1 and 3.3, respectively.
